The results in this text go back to patent US8465724B2, “Multi-drug ligand conjugates” (Endocyte, Inc., priority 2005, dated 2013).

The target of data set [1] is T1, folate receptors (FRs) on KB cells (Homo sapiens, UniProt P15328).
T1 construct: FR-positive KB cells were heavily seeded into 24-well cell culture plates; endogenous in cells; host or cells: KB cells
Briefly: Relative affinity assay (displacement of 3H-folic acid). The class given is binding. The conditions noted are these: relative to folic acid, set to 1, 100 nM 3H-folic acid. The procedure:
The affinity for folate receptors (FRs) relative to folate was determined according to a previously described method (Westerhof, G. R., J. H. Schomagel, et al. (1995) Mol. Pharm. 48: 459-471) with slight modification. Briefly, FR-positive KB cells were heavily seeded into 24-well cell culture plates and allowed to adhere to the plastic for 18 h. Spent incubation media was replaced in designated wells with folate-free RPMI (FFRPMI) supplemented with 100 nM ^3H-folic acid in the absence and presence of increasing concentrations of test article or folic acid. Cells were incubated for 60 min at 37° C. and then rinsed 3 times with PBS, pH 7.4. Five hundred microliters of 1% SDS in PBS, pH 7.4, were added per well. Cell lysates were then collected and added to individual vials containing 5 mL of scintillation cocktail, and then counted for radioactivity. Negative control tubes contained only the ^3H-folic acid in FFRPMI (no competitor). Positive control tubes contained a final concentration of 1 mM folic acid, and CPMs measured in these samples (representing non-specific binding of label) were subtracted from all samples.

For data set [2], the system named is folate receptor-positive KB cells. Type of data set: cell-based, human. The procedure: The compounds described herein were evaluated using an in vitro cytotoxicity assay that predicts the ability of the drug to inhibit the growth of folate receptor-positive KB cells. The compounds were comprised of folate linked to a respective chemotherapeutic drug, as prepared according to the protocols described herein. The KB cells were exposed for up to 7 h at 37° C. to the indicated concentrations of folate-drug conjugate in the absence or presence of at least a 100-fold excess of folic acid. The cells were then rinsed once with fresh culture medium and incubated in fresh culture medium for 72 hours at 37° C. Cell viability was assessed using a ^3H-thymidine incorporation assay.
As shown in the figures herein, dose-dependent cytotoxicity was measurable, and in most cases, the IC50 values (concentration of drug conjugate required to reduce ^3H-thymidine incorporation into newly synthesized DNA by 50%) were in the low nanomolar range.

A further data set deals with FR-positive M109 tumors. Briefly: Inhibition of tumor growth in mice, M109. Type of data set: in vivo, Balb/c mice. The procedure: The anti-tumor activity of the compounds described herein, when administered intravenously (i.v.) to tumor-bearing animals, was evaluated in Balb/c mice bearing subcutaneous M109 tumors. […] Tumor growth was measured using calipers at 2-day or 3-day intervals in each treatment group. Tumor volumes were calculated using the equation V=a×b^2/2, where “a” is the length of the tumor and “b” is the width expressed in millimeters.

Data set [3] can be described thus: Weight determination, Balb/c mice (M109 study). The conditions noted are these: 1 μmol/kg and 2 μmol/kg TIW (6 doses). The class given is in vivo. The procedure:
(§1) The percentage weight change of the mice was determined in mice (5 mice/group) on the indicated days post-tumor inoculation (PTI) as shown in the graph for the samples described in the related tumor volume assay.

Data set [4] has as its system FR-positive s.c. human xenograft KB tumors. Briefly: Inhibition of tumor growth in mice, KB. The class given is in vivo, nu/nu mice. The procedure:
The anti-tumor activity of the compounds described herein, when administered intravenously (i.v.) to tumor-bearing animals, was evaluated in nu/nu mice bearing subcutaneous KB tumors. […] Tumor growth was measured using calipers at 2-day or 3-day intervals in each treatment group. Tumor volumes were calculated using the equation V=a×b^2/2, where “a” is the length of the tumor and “b” is the width expressed in millimeters.

The nature of data set [5]: Weight determination, nude mice. Type of data set: in vivo, nu/nu mice. The procedure: as §1
Data set [6] has as its system folate receptor negative 4T1 tumors. Briefly: 4T-1 tumor volume assay. Particulars: 2 μmol/kg TIW for two weeks. Type of data set: in vivo, Balb/c mice. The procedure: Six to seven week-old mice (female Balb/c strain) were obtained from Harlan, Inc., Indianapolis, Ind. The mice were maintained on Harlan's folate-free chow for a total of three weeks prior to the onset of and during this experiment. Folate receptor-negative 4T-1 tumor cells (1×10^6 cells per animal) were inoculated in the subcutis of the right axilla. […] Tumor growth was measured using calipers at 2-day or 3-day intervals in each treatment group. Tumor volumes were calculated using the equation V=a×b^2/2, where “a” is the length of the tumor and “b” is the width expressed in millimeters.

In data set [7] the test system is folate receptor positive human tumors. The class given is in vivo, nude mice. The conditions noted are these: 2 μmol/kg TIW, five animals.
Data set [8] relates to KB, 4T-1c12, and ID8-c115 tumor cell lines. Briefly: In vitro cytotoxic activity on three tumor cell lines. The conditions noted are these: 4T-1c12, ID8-c115, plus excess folic acid.
The mark [9] stands for this setting: 1 μmol/kg TIW for 2 weeks plus 40 μmol/kg EC20 (rhenium complex).
[10] abbreviates: 1 μmol/kg TIW for 2 weeks, without EC20.

pIC50: −log10 of the molar value. Entries after “also recorded” stand apart in the source; their conditions may differ.

T1 sequence (P15328 25-234): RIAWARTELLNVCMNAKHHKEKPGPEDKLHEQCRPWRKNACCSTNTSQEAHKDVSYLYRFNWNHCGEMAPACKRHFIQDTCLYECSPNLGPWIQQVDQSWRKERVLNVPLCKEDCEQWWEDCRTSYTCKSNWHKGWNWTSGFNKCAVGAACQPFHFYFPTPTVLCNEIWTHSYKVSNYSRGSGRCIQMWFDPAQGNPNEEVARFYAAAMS

For `CC[C@]1(O)C[C@@H]2CN(CCc3c([nH]c4ccccc34)[C@@](C(=O)OC)(c3cc4c(cc3OC)N(C)[C@H]3[C@@](O)(C(=O)NNC(=O)OCCSSC[C@H](NC(=O)[C@H](CN)NC(=O)[C@H](CC(=O)O)NC(=O)[C@H](CC(=O)O)NC(=O)[C@H](CC(=O)O)NC(=O)CC[C@H](NC(=O)c5ccc(NCc6cnc7nc(N)[nH]c(=O)c7n6)cc5)C(=O)O)C(=O)O)[C@H](O)[C@]5(CC)C=CCN6CC[C@]43[C@@H]65)C2)C1` [Example 9], the “relative binding affinity at folic acid receptors” value (“relative binding affinity” for short) in [1] stood at 0.24.
For `CC[C@]1(O)CC2CN(CCc3c([nH]c4ccccc34)[C@@](C(=O)OC)(c3cc4c(cc3OC)N(C)[C@H]3[C@@](O)(C(=O)NNC(=O)OCCSSC[C@H](NC(=O)[C@H](CNC(=O)CCSSCCNC5=C(C)C(=O)C6=C(C5=O)[C@@H](COC(N)=O)[C@@]5(OC)[C@H]7N[C@H]7CN65)NC(=O)[C@H](CC(=O)O)NC(=O)[C@H](CC(=O)O)NC(=O)[C@H](CC(=O)O)NC(=O)CC[C@H](NC(=O)c5ccc(NCc6cnc7nc(N)[nH]c(=O)c7n6)cc5)C(=O)O)C(=O)O)[C@H](O)[C@]5(CC)C=CCN6CC[C@]43[C@@H]65)C2)C1` (stereo partly shown) [Example 11], in data set [1], the “relative binding affinity” value worked out at 0.21. The “potency of Example 11 relative to Example 9” value in data set [2] (3H-thymidine incorporation IC50 compared) is recorded as “more than 10 fold”. Moreover, in data set [2] (KB cells, without excess folic acid, read-out: IC50, 3H-thymidine incorporation), the pIC50 is 8.30. Moreover, the “effect of excess folic acid on activity in 3H-thymidine incorporation” value in [2] (with excess folic acid) is on record as “folic acid competes with the conjugates for binding to the folate receptor”. In the data set on FR-positive M109 tumors (1 μmol/kg and 2 μmol/kg TIW (6 doses)), the “growth of M109 tumors” value is listed as “inhibited the growth of solid tumors”. In the data set on FR-positive M109 tumors (2 μmol/kg TIW (6 doses), also after dosing ended on day 20), the “growth of M109 tumors, higher dose” value is given as “strong inhibition of tumor growth”. Also, in the data set on FR-positive M109 tumors (2 μmol/kg TIW (6 doses), five animals), the “complete responses, M109 tumors” value is reported as “all five animals showed a complete response”. Moreover, in data set [3], the “weight of Balb/c mice” value was “little effect on the weight of the mice; also recorded: absence of an effect”. The “complete responses, KB tumors” value in data set [4] (1 μmol/kg TIW for 2 weeks (6 doses), alone) is 5/5. In addition, in data set [4] (setting [9]), the “complete responses, KB tumors, with EC20” value is recorded as 0/5 and the “growth of KB tumors, with EC20” value is “inhibitory effect is prevented (competed against) by the EC20 rhenium complex”. Moreover, in [4] (setting [10]), the “growth of KB tumors” value is reported as “inhibits the growth of solid tumors”. Also, the “activity on established s.c. KB tumors versus controls” value in data set [4] (1 μmol/kg TIW for two weeks, FIG. 13) was “superior to controls”. Moreover, the “activity on large s.c. KB tumors” value in data set [4] (2 μmol/kg TIW, 2 weeks, start at 250, 500 or 750 mm^3) was “inhibits the growth of large tumors and gives a complete response in test animals”. Also, the “weight of nu/nu (nude) mice, with EC20” value in data set [5] (setting [9]) is listed as “absence of an effect”. Moreover, the “weight of nu/nu (nude) mice” value in data set [5] (setting [10]) is recorded as “did not affect the weight of the test animal significantly from controls; also recorded: absence of an effect”. Besides, the “weight of nude mice” value in [5] (2 μmol/kg TIW, FIG. 11) was “did not significantly affect the weight of the test animals; also recorded: absence of an effect”. Besides, the “activity on 4T1 tumors” value in data set [6] was “does not have any effect on the tumors compared to controls”. Further, the “complete responses, FR-positive human tumors” value in [7] is on record as “complete response in five out of five test animals”. The “in vitro cytotoxic activity with excess folic acid” value in [8] was “reduced in the presence of excess folic acid”.
Consider `Nc1nc2ncc(CNc3ccc(C(=O)N[C@@H](CCC(=O)O)C(=O)O)cc3)nc2c(=O)[nH]1` [folic acid, reference compound], for which the “relative binding affinity” value in data set [1] was 1.0.
